# Assay results reported in patent publication US20090155241A1, “Prophylactic/therapeutic agent for cancer” (JAPANESE FOUNDATION FOR CANCER RESEARCH, priority 2005, published 2009).
# What was measured:
# [1] = test system: SF268/ACS5 and SF268/mock cells; experiment: Cell viability after anticancer drug treatment, SF268/mock and SF268/ACS5; format: cell-based, human; conditions: 48 hours; etoposide 1, 3 or 10 µg/ml, 5-fluorouracil 30, 100 or 300 µg/ml; FIG. 6A
# Method: Changes of anticancer drug sensitivity in cancer cells by expression of ACS5 were examined. After 1, 3 or 10 µg/ml of etoposide or 30, 100 or 300 µg/ml of 5-fluorouracil was added to SF268/ACS5 established in EXAMPLE 4(2), which are cells capable of stably and highly expressing ACS5, and SF268/mock cells for control, incubation was performed in RPMI-1640 medium for 48 hours. After adding 20 μl of CellTiter 96AQueous One Solution Cell Proliferation Assay Kit (manufactured by Promega) and reacting for an hour, the cell viability was determined by measuring absorbance at 490 nm and expressed by % based on the value when no etoposide was added or no 5-fluorouracil was added (FIG. 6A).
# [2] = test system: SF268/ACS5 cells; experiment: Caspase activation in ACS5-expressing SF268 cells; format: cell-based, human; conditions: with expression of ACS5; FIG. 4D
# Method: (§1) In order to examine if the cell growth inhibitory effect by Triacsin c was induced by apoptosis, the caspase activation was measured as an index of the apoptosis induction using acetyl-Asp-Glu-Val-Asp-(4-methylcoumaryl-7-amide) as a substrate.
# (§2) In addition, the caspase activation as an index of apoptosis was examined.
# [3] = test system: SF268 cells; experiment: Cell growth inhibition in SF268 cells; format: cell-based, human; conditions: about 4 μM (1 to 4 μM), treated for 48 hours; FIG. 4C
# Method: (§3) NCI-H23, DMS114, HCT-15, KM-12, SF268 and U251 cells, which are p53-mutated cancer cells, were incubated in RPMI-1640 medium containing 4 or 8 μM Triacsin c for 48 hours. On the other hand, human normal cell lines TIG108, TIG109, ASF4-1, CCD33Co and TIG114 cells were incubated in MEM containing 4 or 8 μM Triacsin c for 48 hours. After completion of the incubation, 20 μl of CellTiter 96AQueous One Solution Cell Proliferation Assay Kit (manufactured by Promega Corp.) was added and reacted for an hour. Absorbance was then measured at 490 nm.
# as §2
# [4] = test system: fatty acid metabolizing enzyme ACS; conditions: Biochem. Biophys. Acta, 921, 595-598, 1987; cited from earlier work
# [5] = test system: p53-mutated cancer cells; experiment: Caspase activation as index of apoptosis induction (Ac-DEVD-MCA substrate); format: cell-based, human; conditions: 8 μM, 30 hours, RPMI medium; FIG. 3B
# Method: as §1
# [6] = test system: Human lung cancer NCI-H23; experiment: Growth inhibitory effect in nude mice bearing p53-mutated cancer; format: in vivo, BALB/cAJcl-nu nude mice
# Method: In order to examine the p53-mutated cancer growth inhibitory effect by apoptosis induction via Triacsin c-induced ACS activity inhibition in vivo, a test for administering p53-mutated cancer-bearing nude mice was performed. Human lung cancer NCI-H23 was used as the p53-mutated cancer cell line and implanted subcutaneously into BALB/cAJcl-nu nude mice (9 weeks old). On day 0 when the tumor volume reached 50-150 mm^3, 40 μl (30 mg/kg/day) of Triacsin c was administered by intratumoral injection (n=5). Triacsin c was administered for 3 consecutive days on days 0, 1 and 2. For control group, 40 μl of saline was administered by the same dosing schedule (n=5). For evaluation of tumor volume, the length (L) and width (W) of the tumor were measured, and the tumor volume (TV) was calculated as TV=L×W×W/2. Relative tumor volume was determined as the value when a mean value of the tumor volume on day 0 in control group was made 1. Tumor growth was measured for 21 days after drug administration. Statistical significance was determined with a Student t test.
# [7] = test system: p53-mutated cancer cells (NCI-H23, DMS114, HCT-15, KM-12, SF268, U251); experiment: Cell growth inhibition, CellTiter 96 AQueous One, p53-mutated cancer cells; format: cell-based, human; conditions: 4 or 8 μM, 48 hours, RPMI-1640; FIG. 3A
# Method: as §3
# (§4) The results are shown by % based on absorbance in the absence of Triacsin c.
# [8] = test system: ACS; experiment: Intracellular ACS activity in cell extract ([14C]-palmitic acid); format: cell-based, human; conditions: 4 μM, 24 hours, FIG. 4B
# Method: The ACS activity was assayed by the method of Banis, et al. (Biochem. Biophys. Acta, 348, 210-220, 1974). To the cell extract (100 μl) obtained by homogenization, 1.2 μmol magnesium chloride, 5 μmol ATP, 3 μmol potassium fluoride, 0.1 μmol coenzyme A, 3 μmol 2-mercaptoethanol, 0.03 μmol palmitic acid and 0.1 μCi [^14C]-palmitic acid (150 μl) were added and the mixture was reacted at 37° C. for 5 minutes. After the reaction was terminated by adding 2.25 ml of isopropanol-heptane-1M sulfuric acid (40:10:1), 1.5 ml of heptane and 1 ml of water were added and the upper layer was removed. The lower layer containing [^14C]-palmitoyl CoA produced after the reaction was washed twice with 2 ml of heptane-8 mg of palmitic acid, and the ^14C level was measured using a liquid scintillation counter.
# The ACS activities of SF268/mock cells and SF268/ACS5 cells were assayed by the method described in EXAMPLE 4(3).
# [9] = test system: SF268/ACS5 cells; experiment: Cell growth inhibition in ACS5-expressing SF268 cells; format: cell-based, human; conditions: FIG. 4C
# Source text: To examine if the p53-mutated cancer cell-selective apoptosis by Triacsin c was induced by ACS activity inhibition, cells stably expressing Triacsin c-resistant ACS isozyme ACS5 were established as follows. The retroviral vector pHa-ACS5—FLAG-IRES-DHFR constructed in EXAMPLE 4(1) and empty vector pHa-IRES-DHFR were introduced into mouse fibroblast PA317 using mammalian transfection kit (Stratagene) to give viral stock. The resulting viral stock was further infected into human glioma SF268 cells and selected with 100 ng/ml of methotrexate as a selective agent to give the stably expressing strain SF268/ACS5 and SF268/mock for control. The cell extract from each cell was analyzed by western blot using anti-FLAG-M2 antibody (Sigma) (and anti-tubulin antibody (Sigma) for control).
# as §2
# [10] = test system: human normal cell lines TIG108, TIG109, ASF4-1, CCD33Co and TIG114; experiment: Cell growth inhibition, CellTiter 96 AQueous One, human normal cell lines; format: cell-based; conditions: 4 or 8 μM, 48 hours, MEM; FIG. 3A
# Method: as §3, §4
SMILES,cell viability in SF268/ACS5 as compared to SF268/mock [1],growth inhibitory effect (cell viability) [1],caspase activation [2],cell growth [3],inhibition activity against ACS [4],caspase activation [5],"tumor volume versus control group ([6]; 30 mg/kg/day intratumoral injection, days 0, 1 and 2, measured for 21 days, p<0.05, FIG. 5)","weight loss ([6]; cancer-bearing nude mice, 30 mg/kg/day intratumoral, 3 consecutive days)",cell growth inhibitory effect [7],intracellular ACS activity ([8]; SF268/ACS5 cells (ACS5-overexpressed)),intracellular ACS activity ([8]; SF268/mock cells),Triacsin c-induced cell growth inhibitory effect [9],cell growth inhibitory effect [10]
COc1cc([C@@H]2c3cc4c(cc3[C@@H](O[C@@H]3O[C@@H]5CO[C@@H](C)O[C@H]5[C@H](O)[C@H]3O)[C@H]3COC(=O)[C@H]23)OCO4)cc(OC)c1O [etoposide],significantly high cell viability,growth inhibitory effect was produced concentration-dependently,,,,,,,,,,,
"CCCC=CCC=CC=CC=NN=NO [Triacsin c, 1-Hydroxy-3-undeca-2,4,7-triene-1-ylidenetriaz-1-ene]",,,strongly counteracted,strongly inhibited the growth,specific inhibition activity,strong activation of caspase,significant tumor regression effect,any weight loss was not observed,potent cell growth inhibitory effect,any significant reduction of the ACS activity was not observed,markedly reduced,almost completely cancelled,no cell growth inhibitory effect was observed
O=c1[nH]cc(F)c(=O)[nH]1 [5-fluorouracil],significantly high cell viability,growth inhibitory effect was produced concentration-dependently,,,,,,,,,,,
